Data published in patent US10125356B2, “Enzymatic methods and enzymes” (Givaudan SA, priority 2007, dated 2018).
Peptide text beside a SMILES is read from it. * marks the point of attachment. Cbz = O=C(OCc1ccccc1)*

Columns and labels:
[1] = tested on: Ax20 peptidase (SEQ ID NO: 2); assay: Inhibition of Pro-Gly cleavage by recombinant Ax20 peptidase, fluorescamine detection of free NH2; type: biochemical, Corynebacterium sp. Ax20; details: Pro-Gly 1 mM, 1 μg/ml peptidase, 60 min at 37° C.
Protocol: Cleavage of the peptide substrate Pro-Gly by addition of the recombinant Ax20 peptidase (SEQ ID NO: 2) released a unique free NH2 group which can be derivatized by fluorescamine (Fluram™, Fluka, Buchs, Switzerland). Test compounds (for example, potential enzyme inhibitors) are dissolved in dimethylsulfoxid (DMSO), for example in individual wells of a microtiter plate. […] Controls are run in parallel and subjected to the same procedure. A positive control contains DMSO without inhibitor, a negative control contains no substrate.

[2] = tested on: peptidase (SEQ ID NO:2) and β-lyase; assay: Inhibition of free SH release from S-benzyl-cys-gly by peptidase plus β-lyase, monobromobimane detection; type: biochemical, Corynebacterium sp. Ax20; details: peptidase 0.1 μg/ml, β-lyase 5 μg/ml
Protocol: For the results shown below (S-benzyl)-cys-gly was used.
Instead of derivatising the free NH2 group of the conjugate by adding Fluram, the free SH group released from the conjugate by the subsequent action of both enzymes was derivatised by adding monobromobimane (Fluka, Buchs, Switzerland) dissolved in a NaCO3 buffer (100 mM, pH 8.8) to give a final concentration of 0.5 mM to 1 mM. After 5 to 15 min incubation the fluorescence was measured on a Flex-station (Molecular devices, Sunnyvale, Calif., USA) with an excitation wavelength of 385 nm and an emission wavelength of 480 nm.

[3] = molecular target: T1, AMRE enzyme (Nα-acyl-glutamine-aminoacylase) (Corynebacterium striatum, UniProt Q8GGD4); assay: Inhibition of AMRE-catalysed release of free NH2 groups from N-Lauroyl-glutamine; type: biochemical
T1 construct: made in house
T1 sequence (Q8GGD4 whole entry): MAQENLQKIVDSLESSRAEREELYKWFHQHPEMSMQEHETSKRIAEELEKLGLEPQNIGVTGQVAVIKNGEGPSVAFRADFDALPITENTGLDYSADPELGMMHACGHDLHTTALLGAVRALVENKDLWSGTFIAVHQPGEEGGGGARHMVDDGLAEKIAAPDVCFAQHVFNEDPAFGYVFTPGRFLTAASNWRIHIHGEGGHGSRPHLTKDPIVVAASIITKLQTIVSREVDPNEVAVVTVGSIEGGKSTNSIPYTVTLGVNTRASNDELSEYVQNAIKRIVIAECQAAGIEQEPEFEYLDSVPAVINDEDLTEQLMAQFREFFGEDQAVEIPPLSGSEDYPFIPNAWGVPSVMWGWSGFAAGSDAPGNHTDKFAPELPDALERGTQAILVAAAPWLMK
Protocol: In an additional step to example 7 or 8, the identified peptidase inhibitors were tested for their modulating effect against the AMRE enzyme (Nα-acyl-glutamine-aminoacylase described by Natsch in EP1258531), thereby identifying dual inhibitors of both metallopeptidase enzymes involved in malodour release.
AMRE is formed as described in example 6 of EP1258531.

Ax20 peptidase = assay: Substrate specificity of recombinant Ax20 peptidase, cleavage by thin layer chromatography; type: biochemical, Corynebacterium sp. Ax20; design: key: (+++) indicating >80% cleavage of a 1 mM solution by 0.1 μg/ml peptidase during an incubation for 1 h; (++) indicates complete cleavage of a 1 mM solution by 1 μg/ml peptidase during an incubation for 1 h; (+) indicates partial cleavage (20-80%) of a 1 mM solution by 1 μg/ml peptidase during an incubation for 1 h; (−) indicating the absence of any cleavage; details: 1 mM solution, 0.1 or 1 μg/ml peptidase, incubation 1 h
Protocol: The recombinant Ax20 peptidase formed as described in example 3 (affinity column purified tagged enzyme) was incubated with different compounds, in particular potential candidate dipeptide substrates, to characterize the substrate specificity and to identify substrates useful for screening assays (for example to screen for modulators including inhibitors).
The table below lists the tested compounds (mostly dipeptides indicated by their short names, e.g. ala-gly for an alanine-glycine dipeptide) and indicates whether they are cleaved by the peptidase. Z indicates a benzyloxy-carbonyl protecting group at the N-terminus of the peptide.
Cleavage was determined by thin layer chromatography.
Amounts are qualitative with (+++) indicating >80% cleavage of a 1 mM solution by 0.1 μg/ml peptidase during an incubation for 1 h; (++) indicates complete cleavage of a 1 mM solution by 1 μg/ml peptidase during an incubation for 1 h and (+) indicates partial cleavage (20-80%) of a 1 mM solution by 1 μg/ml peptidase during an incubation for 1 h and (−) indicating the absence of any cleavage.

C. sp. Ax20 extract = assay: Inhibition of malodourant release by C. sp. Ax20 extract; type: biochemical, Corynebacterium sp. Ax20; details: o-phenantrolin 0.5 mM, Complete at manufacturer's use concentration, 10 min pre-incubation
Protocol: (§1) Extracts from C. sp. Ax20 and C. jeikeium K411 were formed as described in example 1.
(§2) O-phenantrolin (0.5 mM), a metallopeptidase inhibitor, or Complete™ (EDTA free), a protease inhibitor mix (Roche biochemicals, Switzerland; use concentration as indicated by the manufacturer) that contains broad specificity serine and […] inhibitors but no metallopeptidase inhibitors were added to batches of the extracts and incubated for 10 min.
(§3) The cys-conjugate or the cys-gly-conjugate (1 mM), both precursors for the malodourant 3-sulfanyl-3-methyl-hexanol, were then added to the C. sp. Ax20 or C. jeikeium K411 extracts containing the different inhibitors.
(§4) The release of the malodourant 3-sulfanyl-3-methyl-hexanol, which indicates enzyme activity in the Corynebacteria cell lysates, was measured as described in examples 12 and 13.
(§5) The results (in % inhibition of 3-sulfanyl-3-methyl-hexanol release compared to reactions without added inhibitors) are indicated in the table below.

C. jeikeium K411 extract = assay: Inhibition of malodourant release by C. jeikeium K411 extract; type: biochemical, Corynebacterium jeikeium K411; details: o-phenantrolin 0.5 mM, Complete at manufacturer's use concentration, 10 min pre-incubation
Protocol: as §1, §2, §3, §4, §5

β-lyase = molecular target: T2, β-lyase (Corynebacterium striatum, UniProt Q64HC5); assay: Cleavage of conjugates by β-lyase, release of 3-sulfanyl-3-methyl-hexanol by gas chromatography; type: biochemical, Corynebacterium sp. Ax20; details: conjugate 1 mM incubated with β-lyase
T2 construct: made in house
T2 sequence (Q64HC5 whole entry): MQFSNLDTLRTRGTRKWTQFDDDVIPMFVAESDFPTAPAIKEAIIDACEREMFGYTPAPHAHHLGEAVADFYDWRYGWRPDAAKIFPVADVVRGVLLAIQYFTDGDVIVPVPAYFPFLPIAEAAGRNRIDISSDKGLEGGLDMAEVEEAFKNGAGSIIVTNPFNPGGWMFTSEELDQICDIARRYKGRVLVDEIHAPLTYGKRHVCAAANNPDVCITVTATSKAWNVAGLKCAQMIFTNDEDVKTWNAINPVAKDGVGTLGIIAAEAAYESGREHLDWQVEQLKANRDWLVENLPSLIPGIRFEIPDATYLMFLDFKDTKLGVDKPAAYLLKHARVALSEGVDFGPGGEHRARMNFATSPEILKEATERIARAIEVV
Protocol: The test compounds (Cys-conjugate (1 mM) or Cys-Gly-conjugate (1 mM)) were incubated with β-lyase.
(§6) Cleavage was measured by gas chromatography to determine the release of 3-sulfanyl-3-methyl-hexanol in mM.

C. sp. Ax 20 extract = assay: Cleavage of conjugates by Corynebacterium sp. Ax20 cellular extract, release of 3-sulfanyl-3-methyl-hexanol by gas chromatography; type: biochemical; details: conjugate 1 mM incubated with C. sp. Ax 20 extract for 24 h
Protocol: The test compounds (cys-conjugate (1 mM) or cys-gly-conjugate (1 mM)) were incubated also with the wild-type strain Corynebacterium sp. Ax20 extract naturally containing the peptidase of SEQ ID NO:2. Corynebacterium sp. Ax20 cellular extract was prepared as described in example 1. The resulting extract was diluted to the same volume as the original culture has had when adjusted to an optical density of OD 4. The substrate was incubated with the extract for 24 h.
as §6

Compound | Inhibition of release of free NH2 groups from Pro-Gly ([1]; test compound 15.625 microM) | Inhibition of release of free NH2 groups from Pro-Gly ([1]; test compound 31.25 microM) | Inhibition of release of free NH2 groups from Pro-Gly ([1]; test compound 62.5 microM) | Inhibition of release of free SH groups from S-benzyl-cys-gly in presence of peptidase and β-lyase ([2]; test compound 15.625 microM) | Inhibition of release of free SH groups from S-benzyl-cys-gly in presence of peptidase and β-lyase ([2]; test compound 31.25 microM) | Inhibition of release of free SH groups from S-benzyl-cys-gly in presence of peptidase and β-lyase ([2]; test compound 62.5 microM) | Inhibition of release of free NH2 groups from N-Lauroyl-glutamine (catalyzed by AMRE) ([3]; test compound 15.625 microM) | Inhibition of release of free NH2 groups from N-Lauroyl-glutamine (catalyzed by AMRE) ([3]; test compound 31.25 microM) | Inhibition of release of free NH2 groups from N-Lauroyl-glutamine (catalyzed by AMRE) ([3]; test compound 62.5 microM) | Cleavage (Ax20 peptidase) | also measured
O=C(O)CN(CCN(CC(=O)O)CC(=O)O)CC(=O)O [Ethylenediaminetetraacetic acid] | 101.0 % inhibition | 102.6 % inhibition | 101.4 % inhibition | 99.3 % inhibition | 96.5 % inhibition | 99.0 % inhibition | 62.4 % inhibition | 59.8 % inhibition | 61.6 % inhibition |  | 
NCC(=O)NCC(=O)O [Gly-Gly] (H-Gly-Gly-OH) |  |  |  |  |  |  |  |  |  | + ((+) indicates partial cleavage (20-80%) of a 1 mM solution by 1 μg/ml peptidase during an incubation for 1 h) | 
O=C(O)CNCCNCC(=O)O [ethylendiamine-N,N′-diacetic acid] | 65.7 % inhibition | 81.0 % inhibition | 93.9 % inhibition | 50.2 % inhibition | 73.1 % inhibition | 90.4 % inhibition | 7.4 % inhibition | 7.2 % inhibition | 42.7 % inhibition |  | 
c1cnc2c(c1)ccc1cccnc12 [o-Phenantrolin] | 83.9 % inhibition | 95.5 % inhibition | 100.0 % inhibition | 54.2 % inhibition | 79.9 % inhibition | 93.1 % inhibition | 42.4 % inhibition | 81.8 % inhibition | 96.1 % inhibition |  | % inhibition of 3-sulfanyl-3-methyl-hexanol release compared to reactions without added inhibitors (C. sp. Ax20 extract; substrate Cys-Gly-conj. 1 mM): 100 % inhibition; % inhibition of 3-sulfanyl-3-methyl-hexanol release compared to reactions without added inhibitors (C. sp. Ax20 extract; substrate Cys-conj. 1 mM): 0 % inhibition; % inhibition of 3-sulfanyl-3-methyl-hexanol release compared to reactions without added inhibitors (C. jeikeium K411 extract; substrate Cys-Gly-conj. 1 mM): 93 % inhibition; % inhibition of 3-sulfanyl-3-methyl-hexanol release compared to reactions without added inhibitors (C. jeikeium K411 extract; substrate Cys-conj. 1 mM): 13 % inhibition
CC(N)C(=O)NC(C)C(=O)O (centres unmarked) [Ala-Ala] |  |  |  |  |  |  |  |  |  | ++ | 
O=C(O)c1cccc(C(=O)O)n1 [pyridine-2,6-dicarboxylic acid] | 72.4 % inhibition | 92.4 % inhibition | 100.9 % inhibition | 49.6 % inhibition | 83.4 % inhibition | 95.9 % inhibition | 28.8 % inhibition | 52.0 % inhibition | 72.2 % inhibition |  | 
CC(N)C(=O)NCC(=O)O (centres unmarked) [Ala-Gly] |  |  |  |  |  |  |  |  |  | ++ | 
O=C(O)CNC(=O)C1CCCN1 (centres unmarked) [Pro-Gly] |  |  |  |  |  |  |  |  |  | + ((+) indicates partial cleavage (20-80%) of a 1 mM solution by 1 μg/ml peptidase during an incubation for 1 h) | 
CCCC(C)(CCO)SC[C@H](N)C(=O)O (some centres unmarked) [cys-conjugate] |  |  |  |  |  |  |  |  |  |  | release of 3-sulfanyl-3-methyl-hexanol from the conjugate (β-lyase): 0.59 mM; release of 3-sulfanyl-3-methyl-hexanol from the conjugate (C. sp. Ax 20 extract): 0.31 mM
O=C(O)CSCCSCC(=O)O [2,2′-Ethylendithio-diacetic acid] | 0.1 % inhibition | −2.6 % inhibition | −5.3 % inhibition | −10.1 % inhibition | −9.1 % inhibition | −8.7 % inhibition | 22.4 % inhibition | 12.7 % inhibition | 19.6 % inhibition |  | 
C[C@H](NC(=O)OCc1ccccc1)C(=O)O [Z-Ala] |  |  |  |  |  |  |  |  |  | − | 
NC(CSCc1ccccc1)C(=O)NCC(=O)O (centres unmarked) [H-Cys(Bzl)-Gly-OH, S-benzyl-Cys-Gly] |  |  |  |  |  |  |  |  |  | +++ ((+++) indicating >80% cleavage of a 1 mM solution by 0.1 μg/ml peptidase during an incubation for 1 h) | 
O=C(O)CNC(=O)OCc1ccccc1 [Z-Gly] |  |  |  |  |  |  |  |  |  | − | 
O=C(O)CNC(=O)CNC(=O)OCc1ccccc1 [Z-Gly-Gly] (Cbz-Gly-Gly-OH) |  |  |  |  |  |  |  |  |  | − | 
